In paper PMC4488483, “Reversible Oxidation of a Conserved Methionine in the Nuclear Export Sequence Determines Subcellular Distribution and Activity of the Fungal Nitrate Regulator NirA” (PLoS Genetics, 2015):

Legend:
FmoB [1] = molecular target: T1, FmoB (Aspergillus nidulans, UniProt Q5B5S0); test: NADPH consumption, absorbance at […] nm; type: biochemical; details: 2 uM FmoB, 200 uM NADPH, 2 mM substrate
T1 construct: gene ANIA_04110; complete fmoB gene from cDNA, expressed in E. coli, HIS-Select and size exclusion purified, ~60 kDa on SDS-PAGE, FAD saturated
T1 sequence (Q5B5S0 1-492): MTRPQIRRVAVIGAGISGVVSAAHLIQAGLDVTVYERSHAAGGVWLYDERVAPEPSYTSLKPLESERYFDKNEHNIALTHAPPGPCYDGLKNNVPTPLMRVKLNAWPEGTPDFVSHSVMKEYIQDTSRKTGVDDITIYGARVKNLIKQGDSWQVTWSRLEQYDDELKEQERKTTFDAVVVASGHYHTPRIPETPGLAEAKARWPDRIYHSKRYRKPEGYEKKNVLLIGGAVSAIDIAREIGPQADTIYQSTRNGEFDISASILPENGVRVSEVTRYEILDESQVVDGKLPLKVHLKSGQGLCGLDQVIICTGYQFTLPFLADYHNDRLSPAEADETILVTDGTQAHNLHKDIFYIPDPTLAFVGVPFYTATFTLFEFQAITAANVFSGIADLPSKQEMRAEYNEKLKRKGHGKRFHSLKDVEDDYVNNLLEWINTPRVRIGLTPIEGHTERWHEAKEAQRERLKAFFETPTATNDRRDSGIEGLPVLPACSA

FmoB [2] = molecular target: T1, FmoB; test: UV-visible absorbance spectrum of FAD saturated enzyme; type: binding; details: purified recombinant FmoB
FmoB [3] = molecular target: T1, FmoB; test: HPLC of L-methionine sulfoxide formed; type: biochemical; details: NADPH-dependent; up to 5 mM methionine; low rate

With `N[C@@H](CS)C(=O)O` [cysteine] the “NADPH consumption, absorbance at 340 nm” value (FmoB [1]) was “free cysteine, dithiothreitol (DTT) or β-mercaptoethanol were favourable substrates for FmoB”.
With `Cc1cc2nc3c(=O)[nH]c(=O)nc-3n(C[C@H](O)[C@H](O)[C@H](O)COP(=O)(O)OP(=O)(O)OC[C@H]3O[C@@H](n4cnc5c(N)ncnc54)[C@H](O)[C@@H]3O)c2cc1C` [FAD] the “UV-visible absorbance spectrum of FAD saturated enzyme” value (FmoB [2]) was “An UV-visible absorbance spectra of FAD saturated FmoB is shown as inset”.
For `CSCC[C@H](N)C(=O)O` [L-methionine], the “HPLC of L-methionine sulfoxide formed” value (FmoB [3]) was “it is able to convert free methionine to the sulfoxide form”.
